Assay results as given in paper PMC10447463, “Data-mining unveils structure–property–activity correlation of viral infectivity enhancing self-assembling peptides” (Nature Communications, 2023).
Read-outs that look alike come from different tables or passages of the source.

Assays:
[1] = system: HIV-1 infection of TZM-bl cells; test: HIV-1 infectivity enhancement assay, β-galactosidase luminescence; type: cell-based; settings: for Rel-EFC / Log10 Infection Rel EFC: 1.3 µM peptide; for Rel-EFC: infection relative to EF-C (QCKIKQIINMWQ = 1); for Log10 Infection Rel EFC: log10 of infection relative to EF-C; for Log Infectivity: Log10 infection relative to EF-C, TZM-bl cells, asymmetric std dev errors; for Log10 Infection Rel EF-C: HIV-1 infection of TZM-bl cells; for Log10 Inf. rel. to EF-C: log10 of HIV-1 infection of TZM-bl cells relative to EF-C (EF-C = 0); for Log10 of Rel to EFC (Feb2021): Log10 of infection relative to EF-C, all peptides of FigS16; for Abs. Inf.: absolute infection signal, HIV-1 on TZM-bl cells, β-galactosidase luminescence
[2] = type: physicochemical; settings: for ThT Cat. / ThT-Fluorescence (categorical): ThT-active if fluorescence at least twice the control
Method in brief: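 Preformed peptide fibrils (1 mg/mL) mixed with 50 µM ThT in PBS, 15 min at RT, fluorescence ex 440/em 488 nm versus PBS blank, triplicates. Zeta potential: peptides at 1 mg/mL in PBS pH 7.4, aged 1 d at RT, diluted in 1 mM KCl, Smoluchowski from electrophoretic mobility.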

[3] = β-sheet content by ATR-FT-IR; type: physicochemical; settings: Fig. S7 panel A; β-sheet content by ATR-FT-IR
Method in brief: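 Fluorescamine labelling (20 min RT, λex 365/λem 470 nm) of 3 kDa-MWCO filtrate and unfiltered fibril samples, redissolved in DMSO, gave conversion rate as 100 minus the percentage filtrate/original intensity, in triplicate. Secondary structure was quantified by ATR FT-IR on lyophilized 1 mg/mL fibrils, 64 scans.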

[4] = Fig. S7 panel A (plotted against β-sheet content)
[5] = Fig. S7 panel B (plotted against CR), rounded to two decimals
[6] = Log10 of infection rate relative to EF-C, Figure 3A source data
[7] = infection rate relative to EF-C, log10, data of Figure 2D
[8] = infection rate relative to EF-C, log10, source data of Figure 2C
[9] = ThT fluorescence category, 1 if Rel. ThT >2

Substance | Rel-EFC [1] | Log10 Infection Rel EFC [1] | Log Infectivity [1, 4] | Log Infectivity [1, 5] | Log10 Infection Rel EF-C [1, 6] | Log10 Infection Rel EF-C [1, 7] | Log10 Infection Rel EF-C [1, 8] | Log10 Inf. rel. to EF-C [1] | Tht category (> 2 to blank = +) ([2]; Fig S10 panel D) | ThT Cat. ([2]; Fig S10 panel E) | Tht category (> 2 to blank = +) ([2]; FigS12 panel A) | ThT Cat, ([2]; FigS12 panel B) | ThT Cat, ([2]; ThT category, 1 if Rel. ThT >2) | ThT Cat. [2, 9] | ThT Cat. / ThT-Fluorescence (categorical) [2] | b -sheet / % [3] | Log10 of Rel to EFC (Feb2021) [1] | Abs. Inf. [1] | ThT Cat. ([2]; ThT category, 1 if Rel. ThT >2)
KIKIQI | 0,07 | -1,17 | -1.169 | -1.17 | -1.17 | -1.169 | -1.169 | -1.169 | 0 (ThT-inactive (N-Fold <2)) | 0 (ThT-inactive (N-Fold <2)) | 0 (ThT-inactive (N-Fold <2)) | 0 (ThT-inactive (N-Fold <2)) | 0 (ThT-inactive (N-Fold <2)) | 0 (ThT-inactive (N-Fold <2)) | 0 (ThT-inactive (N-Fold <2)) | 38.6% |  |  | 
KIKIQIAMWQ | 0,39 | -0,41 | -0.4109 |  | -0.41 | -0.4109 | -0.4109 | -0.4109 | 1 (ThT. Cat is 1, if Rel. ThT >2) |  |  |  | 1 (ThT. Cat is 1, if Rel. ThT >2) | 1 (ThT. Cat is 1, if Rel. ThT >2) | 1 (ThT. Cat is 1, if Rel. ThT >2) | 37.48% | -0.41 |  | 
KIKIQIN | 0,27 | -0,58 | -0.5766 |  | -0.58 | -0.5766 | -0.5766 | -0.5766 | 0 (ThT-inactive (N-Fold <2)) |  |  |  | 0 (ThT-inactive (N-Fold <2)) | 0 (ThT-inactive (N-Fold <2)) | 0 (ThT-inactive (N-Fold <2)) | 41.82% | -0.58 |  | 
KIKIQINAWQ | 0,54 | -0,27 | -0.2703 |  | -0.27 | -0.2703 | -0.2703 | -0.2703 | 1 (ThT. Cat is 1, if Rel. ThT >2) |  |  |  | 1 (ThT. Cat is 1, if Rel. ThT >2) | 1 (ThT. Cat is 1, if Rel. ThT >2) | 1 (ThT. Cat is 1, if Rel. ThT >2) | 27.74% | -0.27 |  | 
KIKIQINM | 0,36 | -0,44 | -0.4404 | -0.44 | -0.44 | -0.4404 | -0.4404 | -0.4404 | 0 (ThT-inactive (N-Fold <2)) | 0 (ThT-inactive (N-Fold <2)) |  |  | 0 (ThT-inactive (N-Fold <2)) | 0 (ThT-inactive (N-Fold <2)) | 0 (ThT-inactive (N-Fold <2)) | 41% | -0.44 |  | 
KIKIQINMAQ | 0,21 | -0,67 | -0.6722 |  | -0.67 | -0.6722 | -0.6722 | -0.6722 | 0 (ThT-inactive (N-Fold <2)) |  |  |  | 0 (ThT-inactive (N-Fold <2)) | 0 (ThT-inactive (N-Fold <2)) | 0 (ThT-inactive (N-Fold <2)) | 45.78% | -0.67 |  | 
KIKIQINMW | 2,16 | 0,33 | 0.3339 |  | 0.33 | 0.3339 | 0.3339 | 0.3339 | 1 (ThT. Cat is 1, if Rel. ThT >2) |  |  |  | 1 (ThT. Cat is 1, if Rel. ThT >2) | 1 (ThT. Cat is 1, if Rel. ThT >2) | 1 (ThT. Cat is 1, if Rel. ThT >2) | 45.5% | 0.33 |  | 
KIKIQINMWA | 0,69 | -0,16 | -0.1642 |  | -0.16 | -0.1642 | -0.1642 | -0.1642 | 0 (ThT-inactive (N-Fold <2)) |  |  |  | 0 (ThT-inactive (N-Fold <2)) | 0 (ThT-inactive (N-Fold <2)) | 0 (ThT-inactive (N-Fold <2)) | 49.91% | -0.16 |  | 
KIKIQINMWQ | 0,3 | -0,53 | -0.5276 | -0.53 | -0.53 | -0.5276 | -0.5276 | -0.5276 | 1 (ThT. Cat is 1, if Rel. ThT >2) | 1 (ThT. Cat is 1, if Rel. ThT >2) |  |  | 1 (ThT. Cat is 1, if Rel. ThT >2) |  | 1 (ThT. Cat is 1, if Rel. ThT >2) | 42.41% | -0.53 | 6650 | 1 (ThT. Cat is 1, if Rel. ThT >2)
KIKQIIN | 0,04 | -1,4 | -1.4 |  | -1.4 | -1.4 | -1.4 | -1.4 | 0 (ThT-inactive (N-Fold <2)) |  | 0 (ThT-inactive (N-Fold <2)) | 0 (ThT-inactive (N-Fold <2)) | 0 (ThT-inactive (N-Fold <2)) | 0 (ThT-inactive (N-Fold <2)) | 0 (ThT-inactive (N-Fold <2)) | 37.69% |  |  | 
KIKQIINM | 0,45 | -0,35 | -0.3458 | -0.35 | -0.35 | -0.3458 | -0.3458 | -0.3458 | 0 (ThT-inactive (N-Fold <2)) | 0 (ThT-inactive (N-Fold <2)) |  |  | 0 (ThT-inactive (N-Fold <2)) | 0 (ThT-inactive (N-Fold <2)) | 0 (ThT-inactive (N-Fold <2)) | 44% | -0.35 |  | 
KIKQIINMWQ | 0,35 | -0,46 | -0.4604 | -0.46 | -0.46 | -0.4604 | -0.4604 | -0.4604 | 1 (ThT. Cat is 1, if Rel. ThT >2) | 1 (ThT. Cat is 1, if Rel. ThT >2) |  |  | 1 (ThT. Cat is 1, if Rel. ThT >2) |  | 1 (ThT. Cat is 1, if Rel. ThT >2) | 40.68% | -0.46 | 9363 | 1 (ThT. Cat is 1, if Rel. ThT >2)
